Assays:
[1] = system: tumor necrosis factor (TNF)-α; assay: ELISA of TNF-α in BALF and blood of mice with LPS-induced sepsis; format: in vivo, C57BL/6 mice; details: 12 hours after final injection
Protocol: (§1) Specifically, 0.1 ml of phosphate buffered saline (PBS; Gibco, Grand Island, N.Y., USA) was injected intraperitoneally (i.p.) into mice of the control, and 12 hours after the injection, 0.1 ml of PBS was intraperitoneally injected again into each mouse. 1 μg of LPS (Escherichia coli serotype 0111:B4, Sigma-Aldrich, St. Louis, Mo., USA) dissolved in 0.1 ml of PBS was injected intraperitoneally (i.p.) into mice of the LPS group to induce sepsis, and 12 hours after sepsis induction, 0.1 ml of PBS was intraperitoneally injected into each mouse. […]
(§2) Specifically, for the analysis of bronchoalveolar lavage fluid and blood, 12 hours after the final injection into mice of each experimental group of Example 1, 1 μg/g of Zoletil®50 (a combined preparation of tiletamine and zolazepam, Virbac Laboratories, Carros, France) as an anesthetic and 0.1 U/g of heparin sodium (Green Cross Co., Yongin, Korea) were intraperitoneally injected into each mouse to minimize the effect of aches or pains on immunity. […] The levels of tumor necrosis factor (TNF)-α, IL-6, and IL-1β in BALF and blood were measured using a mouse enzyme-linked ELISA kit (R&D Systems Inc., Minneapolis, Minn., USA) according to the manufacturer's instructions. Samples collected from each group were analyzed in triplicate.

[2] = system: Toll-like receptor 4 (TLR4); assay: Immunohistochemical staining for TLR4 in heart or lung tissues; format: in vivo, C57BL/6 mice; details: heart and lungs
Protocol: Specifically, 0.1 ml of phosphate buffered saline (PBS; Gibco, Grand Island, N.Y., USA) was injected intraperitoneally (i.p.) into mice of the control, and 12 hours after the injection, 0.1 ml of PBS was intraperitoneally injected again into each mouse. 1 μg of LPS (Escherichia coli serotype 0111:B4, Sigma-Aldrich, St. Louis, Mo., USA) dissolved in 0.1 ml of PBS was injected intraperitoneally (i.p.) into mice of the LPS group to induce sepsis, and 12 hours after sepsis induction, 0.1 ml of PBS was intraperitoneally injected into each mouse. 1 μg of LPS and 100 mg/kg of ammonium glycyrrhizinate (GR; Abcam Inc., Cambridge, UK) dissolved in 0.1 ml of PBS were injected intraperitoneally (i.p.) into mice of the LPS+GR group, and 12 hours after the injection, 100 mg/kg of ammonium glycyrrhizinate dissolved in 0.1 ml of PBS was intraperitoneally injected into each mouse.
It was determined whether TLR4 expression levels were inhibited when mice with sepsis induced by LPS were treated with glycyrrhizin. The expression level of Toll-like receptor 4 (TLR4) was confirmed using immunohistochemistry and western blot analysis.
Specifically, for immunohistochemical staining for TLR4, the heart or lung tissues of mice of each experimental group of Example 1 were cut to 4 μm after deparaffinization treatment. […] TLR4 intensity was quantified using NIH Image J software.

[3] = system: heart tissues and lung tissues; assay: Histopathologic analysis and injury score of heart and lung tissues in LPS-induced sepsis; format: in vivo, C57BL/6 mice; details: 5-point scale 0-4; LPS 1 μg i.p.; GR 100 mg/kg i.p. twice
Protocol: (§3) Animal experiments were performed according to the National Institutes of Health (NIH) guidelines for the care and use of experimental animals. This study was conducted with the approval of the Konkuk University Animal Care and Use Committee (KU16062). 8-week-old male C57BL/6 mice without specific pathogens were used, and as needed, experimental groups were divided into three groups: a control, an LPS group, and an LPS+GR group.
Specifically, 0.1 ml of phosphate buffered saline (PBS; Gibco, Grand Island, N.Y., USA) was injected intraperitoneally (i.p.) into mice of the control, and 12 hours after the injection, 0.1 ml of PBS was intraperitoneally injected again into each mouse. […]
Specifically, the heart tissues and lung tissues of mice of each experimental group prepared in Example 1 were fixed in a 4% paraformaldehyde solution (Biosesang, Seongnam, Korea) at 25° C. overnight and inserted into paraffin blocks. […] Heart (including left and right ventricles) or lung injury was scored based on Table 2 below. Each score was determined by a 5-point scale such as 0: minimal injury, 1: minor injury, 2: moderate injury, 3: severe injury, and 4: maximum injury.

[4] = system: myeloid cells obtained from blood, the heart, and the lungs; assay: Flow cytometric analysis of MDSC ratio in myeloid cells of mice with LPS-induced sepsis (in vivo); design: species or system C57BL/6 mice
Protocol: as §3, §1
The myeloid cells obtained from blood, the heart, or the lungs were washed with fluorescence-activated cell sorting (FACS) buffer (PBS containing 1% bovine serum albumin and 0.01% NaN3). […]

[5] = system: IL-1β; assay: ELISA of IL-1β in BALF and blood of mice with LPS-induced sepsis; format: in vivo, C57BL/6 mice; details: 12 hours after final injection
Protocol: as §1, §2

## lipopolysaccharide [LPS]
[1]; BALF
  TNF-α: 284.20 ± 56.96 pg/µL
[1]; Blood
  TNF-α: 98.78 ± 9.17 pg/µL
[2]
  expression level of TLR4 by immunohistochemistry: significantly higher in both the heart and the lungs compared to the control
[3]
  injury score, heart tissues: 3.3±0.8
  injury score, lung tissues: 3.5±0.5
[4]; myeloid cells from blood, heart or lungs, LPS 1 μg i.p., GR 100 mg/kg i.p. twice
  ratio of MDSCs to myeloid cells (MDSCs/myeloid cells): significantly reduced compared to the control
[4]; preliminary study using 6 mice with LPS-induced sepsis, blood
  blood ratio of MDSCs to CD11+GR1 myeloid cells: 18.4±3.13%
[5]; BALF
  IL-1β: 164.82 ± 17.81 pg/µL
[5]; Blood
  IL-1β: 126.28 ± 7.61 pg/µL
